Experimental data reported in BindingDB's records for doi:10.1016/j.bmcl.2016.09.047 (Boehringer Ingelheim Pharmaceuticals, 2016).
“And” between values parts separate entries of the source, which are not always exact repeats. Equal values may be shown once.

Target: T1, C-C chemokine receptor type 10 (Homo sapiens, UniProt P46092)
T1 sequence (P46092 whole entry): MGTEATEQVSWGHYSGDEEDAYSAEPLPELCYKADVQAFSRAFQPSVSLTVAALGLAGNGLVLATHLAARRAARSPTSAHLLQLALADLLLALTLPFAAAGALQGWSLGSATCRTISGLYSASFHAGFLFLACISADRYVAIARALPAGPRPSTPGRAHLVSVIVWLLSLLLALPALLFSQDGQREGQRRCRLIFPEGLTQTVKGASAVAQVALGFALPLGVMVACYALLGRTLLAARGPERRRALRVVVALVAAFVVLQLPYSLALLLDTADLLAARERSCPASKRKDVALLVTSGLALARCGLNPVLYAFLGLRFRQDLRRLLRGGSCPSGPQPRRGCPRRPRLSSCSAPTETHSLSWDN
Assay: Antagonist activity at human CCR10 expressed in mouse BA/F3 cells assessed as inhibition of human CCL27-dependent chemotaxis

| IC50 [nM] | SMILES |
| --- | --- |
| 16 | CC1CCN(C(=O)C(CCn2cccc2C#N)NS(=O)(=O)c2cc(Cl)c(N)c(Cl)c2)CC1 (centres undefined) |

Target: not listed separately
Assay: Antagonist activity at human CCR10 expressed in mouse BA/F3 cells assessed as inhibition of human CCL27-dependent chemotaxis

| IC50 | SMILES |
| --- | --- |
| 53 nM and 50 nM | CC1CCN(C(=O)C(CCn2ccnc2[N+](=O)[O-])NS(=O)(=O)c2cc(Cl)c(N)c(Cl)c2)CC1 (centres undefined) |
| 79 nM | Cc1ccc(S(=O)(=O)NC(CCn2cccc2C#N)C(=O)N2CCC(C)CC2)c(C)c1N (centres undefined) |
| 251 nM | CC1CCN(C(=O)C(CCn2ccnc2Cl)NS(=O)(=O)c2cc(Cl)c(N)c(Cl)c2)CC1 (centres undefined) |
| 16 nM | CC1CCN(C(=O)C(CCn2cccc2C#N)NS(=O)(=O)c2ccc3cc[nH]c3c2)CC1 (centres undefined) |
| 501 nM | CC1CCN(C(=O)[C@@H](CCc2ccccc2)NS(=O)(=O)c2cc(Cl)c(N)c(Cl)c2)CC1 |
| 13 nM | CC1CCN(C(=O)C(CCn2cccc2C#N)NS(=O)(=O)c2ccc3[nH]ccc3c2)CC1 (centres undefined) |
| 1260 nM | CC1CCN(C(=O)C(CCn2cccn2)NS(=O)(=O)c2cc(Cl)c(N)c(Cl)c2)CC1 (centres undefined) |
| 1260 nM | CC1CCN(C(=O)C(CCn2nccn2)NS(=O)(=O)c2cc(Cl)c(N)c(Cl)c2)CC1 (centres undefined) |
